# Source: patent publication US20110178396A1, “Nicotinamide Derivatives” (CRC FOR BIOMEDICAL IMAGING DEVELOPMENT LTD., priority 2008, published 2011)
# Test system: B16F0 melanoma tumour
# Assay: Biodistribution in B16 melanoma bearing mice
# Assay type: in vivo, C57BL/6J mice
# Settings: C57BL/6J mice; for Organ distribution Intestine / Organ distribution Liver / Organ distribution Spleen / Organ distribution Stomach / Organ distribution Thyroid / Organ distribution Tumour: B16F0 tumour, mean ± S.D.; for Organ distribution Intestine / Organ distribution Liver / Organ distribution Spleen / Organ distribution Stomach / Organ distribution Thyroid / Organ distribution Tumour / Uptake Lung / uptake BLOOD / uptake BRAIN / uptake HEART / uptake KIDNEY / uptake LIVER / uptake TUMOUR: n = 5; for tumour standardized uptake value (SUVt) / Uptake Lung / uptake BLOOD / uptake BRAIN / uptake HEART / uptake KIDNEY / uptake LIVER / uptake TUMOUR: B16 tumour; for Uptake Lung / uptake BLOOD / uptake BRAIN / uptake HEART / uptake KIDNEY / uptake LIVER / uptake TUMOUR: mean ± SD
# Procedure, shortened: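 B16F0 tumours in C57BL/6J mice (day 11) and A375 xenografts in BALB/c nude mice (day 25), subcutaneous left flank. Radiotracer given i.v. by tail vein (18F 0.5–1.5 MBq; 123I 0.37–0.74 MBq); n=5 per time point, 15 min–6 h (18F) or 1–72 h (123I). Organs γ-counted as % ID/g.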
smiles,measurement,setting,value
"CCN(CC)CCNC(=O)c1cncc(I)c1 [[^123I]11, N-(2-(diethylamino)ethyl)-5-iodonicotinamide]",Organ distribution Intestine,1 h,15 ± 2 % ID/organ
same,Organ distribution Liver,1 h,1.8 ± 0.3 % ID/organ
same,Organ distribution Spleen,1 h,0.16 ± 0.16 % ID/organ
same,Organ distribution Stomach,1 h,2.0 ± 0.2 % ID/organ
same,Organ distribution Thyroid,1 h,0.37 ± 0.07 % ID/organ
same,Organ distribution Tumour,1 h,1.3 ± 0.3 % ID/organ
same,Organ distribution Intestine,3 h,5 ± 2 % ID/organ
same,Organ distribution Liver,3 h,0.82 ± 0.08 % ID/organ
same,Organ distribution Spleen,3 h,0.06 ± 0.05 % ID/organ
same,Organ distribution Stomach,3 h,1.3 ± 0.3 % ID/organ
same,Organ distribution Thyroid,3 h,1.1 ± 0.3 % ID/organ
same,Organ distribution Tumour,3 h,1.0 ± 0.4 % ID/organ
same,Organ distribution Intestine,6 h,2.8 ± 0.4 % ID/organ
same,Organ distribution Spleen,6 h,0.05 ± 0.04 % ID/organ
same,Organ distribution Stomach,6 h,1.2 ± 0.2 % ID/organ
same,Organ distribution Thyroid,6 h,1.8 ± 1.0 % ID/organ
same,Organ distribution Tumour,6 h,1.1 ± 0.3 % ID/organ
same,Organ distribution Intestine,24 h,0.10 ± 0.02 % ID/organ
same,Organ distribution Liver,24 h,0.12 ± 0.01 % ID/organ
same,Organ distribution Spleen,24 h,0.01 ± 0.03 % ID/organ
same,Organ distribution Stomach,24 h,0.04 ± 0.01 % ID/organ
same,Organ distribution Thyroid,24 h,1.0 ± 0.3 % ID/organ
same,Organ distribution Tumour,24 h,0.7 ± 0.1 % ID/organ
same,Organ distribution Intestine,48 h,0.06 ± 0.01 % ID/organ
same,Organ distribution Liver,48 h,0.06 ± 0.01 % ID/organ
same,Organ distribution Spleen,48 h,0.00 ± 0.00 % ID/organ
same,Organ distribution Stomach,48 h,0.02 ± 0.01 % ID/organ
same,Organ distribution Thyroid,48 h,1.4 ± 0.3 % ID/organ
same,Organ distribution Tumour,48 h,0.7 ± 0.4 % ID/organ
same,Organ distribution Intestine,72 h,0.04 ± 0.01 % ID/organ
same,Organ distribution Liver,72 h,0.04 ± 0.01 % ID/organ
same,Organ distribution Spleen,72 h,0.01 ± 0.01 % ID/organ
same,Organ distribution Stomach,72 h,0.01 ± 0.01 % ID/organ
same,Organ distribution Thyroid,72 h,1.0 ± 0.6 % ID/organ
same,Organ distribution Tumour,72 h,0.3 ± 0.1 % ID/organ
same,tumour standardized uptake value (SUVt),1 h,3.7 ± 1.0
same,Uptake Lung,1 h,1.4 ± 0.2 % ID/g
same,uptake BLOOD,1 h,1.21 ± 0.17 % ID/g
same,uptake BRAIN,1 h,0.14 ± 0.02 % ID/g
same,uptake HEART,1 h,0.8 ± 0.1 % ID/g
same,uptake KIDNEY,1 h,1.8 ± 0.5 % ID/g
same,uptake LIVER,1 h,1.9 ± 0.3 % ID/g
same,uptake TUMOUR,1 h,7.8 ± 1.7 % ID/g
same,tumour standardized uptake value (SUVt),3 h,7.4 ± 1.6
same,Uptake Lung,3 h,0.75 ± 0.07 % ID/g
same,uptake BLOOD,3 h,0.92 ± 0.09 % ID/g
same,uptake BRAIN,3 h,0.07 ± 0.01 % ID/g
same,uptake HEART,3 h,0.4 ± 0.04 % ID/g
same,uptake KIDNEY,3 h,0.8 ± 0.1 % ID/g
same,uptake LIVER,3 h,0.9 ± 0.1 % ID/g
same,uptake TUMOUR,3 h,6.0 ± 0.4 % ID/g
same,tumour standardized uptake value (SUVt),6 h,12 ± 1
same,Uptake Lung,6 h,0.47 ± 0.11 % ID/g
same,uptake BLOOD,6 h,0.58 ± 0.14 % ID/g
same,uptake BRAIN,6 h,0.04 ± 0.01 % ID/g
same,uptake HEART,6 h,0.26 ± 0.06 % ID/g
same,uptake KIDNEY,6 h,0.5 ± 0.1 % ID/g
same,uptake LIVER,6 h,0.6 ± 0.1 % ID/g
same,uptake TUMOUR,6 h,5.9 ± 0.7 % ID/g
same,tumour standardized uptake value (SUVt),24 h,37 ± 9
same,Uptake Lung,24 h,0.03 ± 0.02 % ID/g
same,uptake BLOOD,24 h,0.03 ± 0.01 % ID/g
same,uptake BRAIN,24 h,0.01 % ID/g
same,uptake HEART,24 h,0.04 ± 0.01 % ID/g
same,uptake KIDNEY,24 h,0.03 ± 0.01 % ID/g
same,uptake LIVER,24 h,0.12 ± 0.02 % ID/g
same,uptake TUMOUR,24 h,3.2 ± 0.9 % ID/g
same,tumour standardized uptake value (SUVt),48 h,22 ± 5
same,Uptake Lung,48 h,0.04 ± 0.01 % ID/g
same,uptake BRAIN,48 h,0.01 % ID/g
same,uptake HEART,48 h,0.03 ± 0.01 % ID/g
same,uptake KIDNEY,48 h,0.03 ± 0.01 % ID/g
same,uptake LIVER,48 h,0.08 ± 0.02 % ID/g
same,uptake TUMOUR,48 h,2.2 ± 0.4 % ID/g
same,tumour standardized uptake value (SUVt),72 h,18 ± 12
same,Uptake Lung,72 h,0.04 ± 0.04 % ID/g
same,uptake BLOOD,72 h,0.02 ± 0.01 % ID/g
same,uptake BRAIN,72 h,0.01 % ID/g
same,uptake HEART,72 h,0.06 ± 0.02 % ID/g
same,uptake KIDNEY,72 h,0.02 ± 0.02 % ID/g
same,uptake LIVER,72 h,0.04 ± 0.01 % ID/g
same,uptake TUMOUR,72 h,1.4 ± 0.3 % ID/g
